Test results as given in ChEMBL document CHEMBL1142358, “3-amino-benzo[d]isoxazoles as novel multitargeted inhibitors of receptor tyrosine kinases” (J Med Chem, 2008).
The source made the active and inactive calls. The calls are words filed in the database; no cut-off is given here.

Assays:
[1] = target: Mast/stem cell growth factor receptor Kit (Homo sapiens, UniProt P10721); test: Inhibition of KIT by HTRF assay
[2] = target: T1, Receptor-type tyrosine-protein kinase FLT3 (Homo sapiens, UniProt P36888)
T1 sequence (P36888 whole entry): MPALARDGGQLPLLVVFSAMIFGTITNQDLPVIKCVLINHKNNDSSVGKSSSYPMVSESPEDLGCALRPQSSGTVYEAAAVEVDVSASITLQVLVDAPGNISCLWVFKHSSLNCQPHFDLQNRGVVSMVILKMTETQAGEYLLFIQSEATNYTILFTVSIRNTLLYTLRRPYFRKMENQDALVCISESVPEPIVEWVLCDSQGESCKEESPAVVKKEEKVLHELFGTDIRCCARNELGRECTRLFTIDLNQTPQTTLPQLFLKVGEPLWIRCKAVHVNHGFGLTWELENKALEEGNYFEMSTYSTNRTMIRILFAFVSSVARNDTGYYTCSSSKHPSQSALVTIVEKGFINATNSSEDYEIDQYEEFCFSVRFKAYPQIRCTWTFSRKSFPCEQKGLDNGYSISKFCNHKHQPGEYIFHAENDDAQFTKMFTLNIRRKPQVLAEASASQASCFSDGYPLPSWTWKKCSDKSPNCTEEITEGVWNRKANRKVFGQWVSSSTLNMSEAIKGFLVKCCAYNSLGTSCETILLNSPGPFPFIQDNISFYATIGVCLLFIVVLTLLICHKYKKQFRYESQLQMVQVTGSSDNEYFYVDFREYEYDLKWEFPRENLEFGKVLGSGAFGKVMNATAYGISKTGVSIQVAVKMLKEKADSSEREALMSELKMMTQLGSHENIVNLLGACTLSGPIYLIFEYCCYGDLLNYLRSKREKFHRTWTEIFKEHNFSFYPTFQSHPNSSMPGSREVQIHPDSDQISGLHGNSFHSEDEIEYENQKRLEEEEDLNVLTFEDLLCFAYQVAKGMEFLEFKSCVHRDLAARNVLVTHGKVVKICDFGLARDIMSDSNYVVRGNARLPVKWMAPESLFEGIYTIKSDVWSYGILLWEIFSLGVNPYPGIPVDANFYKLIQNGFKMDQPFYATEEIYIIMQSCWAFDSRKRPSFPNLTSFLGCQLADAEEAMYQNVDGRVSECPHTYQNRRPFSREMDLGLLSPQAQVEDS
Description: Inhibition of FLT3 by HTRF assay

[3] = target: Vascular endothelial growth factor receptor 1 (Homo sapiens, UniProt P17948); test: Inhibition of FLT1 by HTRF assay
[4] = Oral bioavailability in mouse at 10 mg/kg; type: ADME, organism-based; conditions: in vivo
[5] = target: Tyrosine-protein kinase HCK (Homo sapiens, UniProt P08631); test: Inhibition of HCK by HTRF assay
[6] = target: Angiopoietin-1 receptor (Homo sapiens, UniProt Q02763); test: Inhibition of TIE2 by HTRF assay
[7] = test system: Mus musculus; test: Inhibition of estradiol-induced uterine edema in orally dosed BALB/c mouse edema model; type: functional; conditions: po
[8] = AUC in mouse at 10 mg/kg, po; type: ADME, organism-based; design: dose 10 mg/kg, route oral; conditions: plasma
[9] = Half life in mouse at 3 mg/kg, iv; type: ADME, organism-based; design: dose 3 mg/kg, route intravenous; conditions: in vivo
[10] = target: Platelet-derived growth factor receptor beta (Homo sapiens, UniProt P09619); test: Inhibition of PDGFRbeta by HTRF assay
[11] = Clearance in mouse at 3 mg/kg, iv; type: ADME, organism-based; design: dose 3 mg/kg, route intravenous; conditions: in vivo
[12] = test system: HT-1080; test: Inhibition of tumor growth in human HT1080 cells xenografted in SCID/Beige mouse at 30 mg/kg/day, bid relative to control; conditions: HT-1080, read-out: TGI
[13] = target: Tyrosine-protein kinase Lyn (Homo sapiens, UniProt P07948); test: Inhibition of LYN by HTRF assay
[14] = target: Voltage-gated inwardly rectifying potassium channel KCNH2 (Homo sapiens, UniProt Q12809)
Description: Displacement of [3H]dofetilide from human ERG expressed in HEK293 cells

[15] = target: Proto-oncogene tyrosine-protein kinase Src (Homo sapiens, UniProt P12931); test: Inhibition of SRC by HTRF assay
[16] = target: Macrophage colony-stimulating factor 1 receptor (Homo sapiens, UniProt P07333); test: Inhibition of CSF1R by HTRF assay
[17] = Volume of distribution in mouse at 3 mg/kg, iv; type: ADME, organism-based; design: dose 3 mg/kg, route intravenous; conditions: in vivo
[18] = target: Receptor-type tyrosine-protein kinase FLT3 (Homo sapiens) (UniProt P36888)
Description: Inhibition of FLT3 by HTRF assay

[19] = AUC (0 to 24 hrs) in mouse plasma at 30 mg/kg/day; type: ADME, organism-based; design: dose 30 mg/kg/day, time < 24 hr
[20] = target: Vascular endothelial growth factor receptor 2 (Homo sapiens, UniProt P35968)
Description: Inhibition of KDR by HTRF assay

[21] = Half life in mouse at 1 mg/kg, iv; type: ADME, organism-based; design: dose 1 mg/kg, route intravenous; conditions: in vivo
[22] = Clearance in mouse at 1 mg/kg, iv; type: ADME, organism-based; design: dose 1 mg/kg, route intravenous; conditions: in vivo
[23] = Volume of distribution in mouse at 1 mg/kg, iv; type: ADME, organism-based; design: dose 1 mg/kg, route intravenous; conditions: in vivo
[24] = test system: Mus musculus; test: Inhibition of estradiol-induced uterine edema in orally dosed BALB/c mouse edema model at 3 mg/kg, po; type: functional

Chain of Vascular endothelial growth factor receptor 2 (P35968 whole entry): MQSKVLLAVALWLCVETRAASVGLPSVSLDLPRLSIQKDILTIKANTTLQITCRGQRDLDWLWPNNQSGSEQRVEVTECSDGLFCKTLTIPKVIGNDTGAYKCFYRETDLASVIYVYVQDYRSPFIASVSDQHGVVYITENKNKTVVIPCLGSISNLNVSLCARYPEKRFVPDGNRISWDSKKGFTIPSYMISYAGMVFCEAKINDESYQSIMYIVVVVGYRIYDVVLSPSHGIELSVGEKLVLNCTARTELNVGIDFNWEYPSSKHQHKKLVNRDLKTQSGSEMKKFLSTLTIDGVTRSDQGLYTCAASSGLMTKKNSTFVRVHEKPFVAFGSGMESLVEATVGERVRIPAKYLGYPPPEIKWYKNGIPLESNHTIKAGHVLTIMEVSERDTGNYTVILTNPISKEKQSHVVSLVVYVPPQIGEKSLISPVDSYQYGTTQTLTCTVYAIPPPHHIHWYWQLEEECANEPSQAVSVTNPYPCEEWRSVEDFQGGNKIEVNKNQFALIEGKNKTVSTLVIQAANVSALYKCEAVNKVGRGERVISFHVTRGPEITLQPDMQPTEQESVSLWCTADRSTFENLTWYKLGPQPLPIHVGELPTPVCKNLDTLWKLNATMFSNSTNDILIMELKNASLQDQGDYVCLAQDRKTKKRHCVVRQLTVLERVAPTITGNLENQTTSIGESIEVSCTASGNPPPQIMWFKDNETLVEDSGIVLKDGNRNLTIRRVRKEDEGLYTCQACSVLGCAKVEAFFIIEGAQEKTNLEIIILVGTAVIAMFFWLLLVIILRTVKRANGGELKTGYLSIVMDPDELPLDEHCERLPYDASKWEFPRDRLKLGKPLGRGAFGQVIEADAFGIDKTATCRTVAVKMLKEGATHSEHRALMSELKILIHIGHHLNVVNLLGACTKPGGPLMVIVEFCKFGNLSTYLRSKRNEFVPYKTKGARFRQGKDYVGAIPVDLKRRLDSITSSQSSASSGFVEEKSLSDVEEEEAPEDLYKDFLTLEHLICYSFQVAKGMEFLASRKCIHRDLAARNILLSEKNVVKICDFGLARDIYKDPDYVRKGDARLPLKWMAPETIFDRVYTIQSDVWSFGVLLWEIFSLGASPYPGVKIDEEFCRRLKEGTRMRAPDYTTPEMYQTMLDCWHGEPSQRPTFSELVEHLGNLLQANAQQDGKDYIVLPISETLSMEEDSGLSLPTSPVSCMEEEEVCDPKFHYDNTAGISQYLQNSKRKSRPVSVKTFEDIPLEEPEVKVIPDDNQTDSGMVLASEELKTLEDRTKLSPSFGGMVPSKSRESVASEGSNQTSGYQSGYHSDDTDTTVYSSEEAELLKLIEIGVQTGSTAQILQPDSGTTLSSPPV
Chain of Tyrosine-protein kinase Lyn (P07948 whole entry): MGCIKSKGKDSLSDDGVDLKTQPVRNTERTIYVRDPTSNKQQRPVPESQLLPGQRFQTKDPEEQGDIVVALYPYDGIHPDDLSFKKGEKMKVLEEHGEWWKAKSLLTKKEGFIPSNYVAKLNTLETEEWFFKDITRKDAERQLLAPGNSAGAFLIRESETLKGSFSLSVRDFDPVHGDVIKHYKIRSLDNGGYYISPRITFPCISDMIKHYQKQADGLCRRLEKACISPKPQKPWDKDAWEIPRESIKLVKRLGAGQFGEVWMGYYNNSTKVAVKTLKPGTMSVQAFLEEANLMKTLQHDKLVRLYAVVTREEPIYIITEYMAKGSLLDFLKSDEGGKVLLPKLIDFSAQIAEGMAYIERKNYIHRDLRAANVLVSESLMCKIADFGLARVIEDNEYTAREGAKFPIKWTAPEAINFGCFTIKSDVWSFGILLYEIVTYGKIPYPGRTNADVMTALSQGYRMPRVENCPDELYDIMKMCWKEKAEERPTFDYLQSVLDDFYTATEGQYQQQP
Chain of Mast/stem cell growth factor receptor Kit (P10721 whole entry): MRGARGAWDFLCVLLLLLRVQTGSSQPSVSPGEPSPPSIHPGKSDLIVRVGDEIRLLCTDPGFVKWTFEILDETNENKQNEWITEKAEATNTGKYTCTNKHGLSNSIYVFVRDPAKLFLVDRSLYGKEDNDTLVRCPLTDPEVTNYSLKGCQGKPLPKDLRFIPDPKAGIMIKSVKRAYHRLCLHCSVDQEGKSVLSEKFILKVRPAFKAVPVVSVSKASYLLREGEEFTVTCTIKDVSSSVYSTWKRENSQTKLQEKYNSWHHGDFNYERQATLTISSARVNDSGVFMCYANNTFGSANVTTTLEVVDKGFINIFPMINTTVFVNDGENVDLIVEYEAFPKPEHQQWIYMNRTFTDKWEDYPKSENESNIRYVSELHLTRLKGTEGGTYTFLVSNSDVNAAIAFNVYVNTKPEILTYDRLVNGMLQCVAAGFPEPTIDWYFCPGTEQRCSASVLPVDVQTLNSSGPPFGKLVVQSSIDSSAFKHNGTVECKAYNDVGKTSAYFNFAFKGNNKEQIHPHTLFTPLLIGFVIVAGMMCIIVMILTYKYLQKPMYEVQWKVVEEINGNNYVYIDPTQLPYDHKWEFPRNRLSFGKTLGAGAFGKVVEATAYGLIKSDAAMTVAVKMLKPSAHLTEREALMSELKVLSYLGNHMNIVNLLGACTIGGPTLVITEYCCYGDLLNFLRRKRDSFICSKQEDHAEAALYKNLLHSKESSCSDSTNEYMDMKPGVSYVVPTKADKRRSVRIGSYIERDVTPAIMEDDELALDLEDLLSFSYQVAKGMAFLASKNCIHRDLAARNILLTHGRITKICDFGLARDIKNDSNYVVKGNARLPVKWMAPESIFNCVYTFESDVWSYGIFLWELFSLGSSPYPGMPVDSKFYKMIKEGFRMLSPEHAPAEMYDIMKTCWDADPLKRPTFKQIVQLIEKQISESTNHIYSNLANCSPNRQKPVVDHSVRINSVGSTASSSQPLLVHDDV
Chain of Platelet-derived growth factor receptor beta (P09619 whole entry): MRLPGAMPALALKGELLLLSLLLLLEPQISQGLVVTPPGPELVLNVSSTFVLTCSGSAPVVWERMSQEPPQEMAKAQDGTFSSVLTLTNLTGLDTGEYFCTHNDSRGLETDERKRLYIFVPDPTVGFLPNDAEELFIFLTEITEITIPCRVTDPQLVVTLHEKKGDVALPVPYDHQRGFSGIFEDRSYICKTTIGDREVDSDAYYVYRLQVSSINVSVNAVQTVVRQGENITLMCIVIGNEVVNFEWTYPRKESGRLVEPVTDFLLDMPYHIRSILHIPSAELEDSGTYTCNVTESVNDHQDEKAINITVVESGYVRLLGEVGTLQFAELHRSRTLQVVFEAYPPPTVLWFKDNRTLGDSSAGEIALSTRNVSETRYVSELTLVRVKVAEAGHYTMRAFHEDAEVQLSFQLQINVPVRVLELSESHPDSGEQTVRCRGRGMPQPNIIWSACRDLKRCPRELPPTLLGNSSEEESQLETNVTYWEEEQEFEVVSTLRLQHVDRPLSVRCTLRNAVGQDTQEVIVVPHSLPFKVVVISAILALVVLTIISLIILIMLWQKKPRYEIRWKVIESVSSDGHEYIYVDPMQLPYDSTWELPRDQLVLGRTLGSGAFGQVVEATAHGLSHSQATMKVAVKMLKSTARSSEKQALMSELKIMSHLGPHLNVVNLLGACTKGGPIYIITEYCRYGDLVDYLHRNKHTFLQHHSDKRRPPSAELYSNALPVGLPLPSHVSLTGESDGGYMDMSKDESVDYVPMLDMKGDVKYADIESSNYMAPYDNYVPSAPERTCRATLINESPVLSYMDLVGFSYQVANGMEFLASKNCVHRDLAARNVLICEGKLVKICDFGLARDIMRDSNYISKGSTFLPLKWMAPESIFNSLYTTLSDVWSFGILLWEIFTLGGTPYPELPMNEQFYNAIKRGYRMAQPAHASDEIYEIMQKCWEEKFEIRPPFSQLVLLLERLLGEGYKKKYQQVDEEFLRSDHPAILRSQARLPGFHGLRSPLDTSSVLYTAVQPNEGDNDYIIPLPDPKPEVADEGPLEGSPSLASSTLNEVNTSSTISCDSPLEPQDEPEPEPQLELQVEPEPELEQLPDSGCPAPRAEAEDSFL
Chain of Tyrosine-protein kinase HCK (P08631 whole entry): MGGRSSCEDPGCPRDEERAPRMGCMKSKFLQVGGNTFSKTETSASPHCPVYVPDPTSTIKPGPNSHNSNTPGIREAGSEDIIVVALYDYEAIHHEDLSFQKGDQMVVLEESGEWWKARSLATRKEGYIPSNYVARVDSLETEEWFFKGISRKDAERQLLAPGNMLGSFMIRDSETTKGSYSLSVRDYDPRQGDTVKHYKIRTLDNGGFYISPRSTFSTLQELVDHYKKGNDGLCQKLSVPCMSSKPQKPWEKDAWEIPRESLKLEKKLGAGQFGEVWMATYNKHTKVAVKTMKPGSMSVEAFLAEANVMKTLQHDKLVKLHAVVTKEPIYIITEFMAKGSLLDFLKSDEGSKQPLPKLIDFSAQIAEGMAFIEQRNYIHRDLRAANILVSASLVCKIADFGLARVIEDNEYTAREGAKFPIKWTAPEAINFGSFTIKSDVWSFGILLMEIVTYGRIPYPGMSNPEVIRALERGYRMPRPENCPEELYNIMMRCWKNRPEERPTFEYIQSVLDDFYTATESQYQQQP
Chain of Proto-oncogene tyrosine-protein kinase Src (P12931 2-536 limits assumed): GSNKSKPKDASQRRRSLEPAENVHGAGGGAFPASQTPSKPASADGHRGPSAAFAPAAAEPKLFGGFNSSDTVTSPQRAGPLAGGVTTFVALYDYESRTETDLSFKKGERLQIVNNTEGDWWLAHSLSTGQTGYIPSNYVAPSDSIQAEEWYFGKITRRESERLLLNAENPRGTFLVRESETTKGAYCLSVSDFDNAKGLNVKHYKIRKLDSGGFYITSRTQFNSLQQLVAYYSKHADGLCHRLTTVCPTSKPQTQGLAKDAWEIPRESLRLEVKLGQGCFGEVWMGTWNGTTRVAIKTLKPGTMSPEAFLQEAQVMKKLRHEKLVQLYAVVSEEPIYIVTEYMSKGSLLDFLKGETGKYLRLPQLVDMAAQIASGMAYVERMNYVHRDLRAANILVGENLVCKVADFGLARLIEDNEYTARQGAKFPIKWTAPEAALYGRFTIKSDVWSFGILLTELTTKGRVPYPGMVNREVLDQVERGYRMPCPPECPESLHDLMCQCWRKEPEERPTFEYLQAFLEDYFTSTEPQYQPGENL

Molecule `Nc1noc2cccc(-c3ccc(NC(=O)Nc4ccc(F)cc4)cc3)c12` has an IC50 [1] of 7 nM and an IC50 [2] of 4 nM.

For `COc1ccc(-c2ccc(NC(=O)Nc3cc(C)ccc3F)cc2)c2c(N)noc12`, the IC50 [3] was 24 nM, the bioavailability [4] was 34% and the IC50 [5] was > 50000 nM. For the same molecule, the IC50 [6] was 249 nM, the ED50 [7] was 3.2 mg/kg and the IC50 [1] was 43 nM. For the same molecule, the AUC [8] was 8.5 µM·h, the half-life [9] was 0.66 h and the IC50 [2] was 36 nM. For the same molecule, the IC50 [10] was 96 nM, the clearance [11] was 16.7 mL/min/kg and the inhibition in vivo at 30 mg/kg/day [12] was 55%. The IC50 [13] was > 50000 nM, the IC50 [14] was > 30000 nM and the IC50 [15] was > 50000 nM. It also gave an IC50 [16] of 27 nM and a Vd [17] of 0.94 L/kg.

With `Nc1noc2cccc(-c3ccc(NC(=O)Nc4cccc(F)c4)cc3)c12` the IC50 [1] was 11 nM and the Activity [18] was “inactive”.

Work on `Cc1ccc(F)c(NC(=O)Nc2ccc(-c3cccc4[nH]nc(N)c34)cc2)c1` [LINIFANIB] yielded an ED50 [7] of 0.4 mg/kg, a half-life [9] of 1.7 h and a clearance [11] of 18.3 mL/min/kg. The inhibition in vivo at 30 mg/kg/day [12] was 85%, the IC50 [13] was > 50000 nM and the AUC at 24 h [19] was 19.1 µM·h. The Vd [17] was 2.7 L/kg.

In the case of `Nc1noc2cccc(-c3ccc(NC(=O)Nc4ccc(F)c(C(F)(F)F)c4)cc3)c12`, the bioavailability [4] is reported as 100%, the ED50 [7] is reported as 5.4 mg/kg and the IC50 [1] is reported as 62 nM. For the same molecule, the AUC [8] was 33.1 µM·h, the half-life [9] was 1.2 h and the IC50 [2] was 28 nM. For the same molecule, the clearance [11] was 13.2 mL/min/kg, the inhibition in vivo at 30 mg/kg/day [12] was 63% and the Vd [17] was 1.4 L/kg.

`Cc1ccc(F)c(NC(=O)Nc2ccc(-c3cccc4snc(N)c34)cc2)c1` gave an IC50 [1] of 790 nM, an IC50 [20] of 628 nM and an IC50 [2] of 1500 nM.

With `Cc1ccc(F)c(NC(=O)Nc2ccc(-c3ccc(OCCN4CCOCC4)c4onc(N)c34)cc2)c1` the IC50 [1] was 71 nM and the IC50 [2] was 34 nM.

`Cc1ccc(F)c(NC(=O)Nc2ccc(-c3ccc(C)c4onc(N)c34)cc2)c1` showed an IC50 [1] of 64 nM and an IC50 [2] of 61 nM.

Molecule `Cc1ccc(F)c(NC(=O)Nc2ccc(-c3ccc(CN4CCOCC4)c4onc(N)c34)cc2)c1` has an IC50 [1] of 114 nM, an IC50 [20] of 365 nM and an IC50 [2] of 82 nM.

With `Cc1ccc(NC(=O)Nc2ccc(-c3cccc4onc(N)c34)cc2)cc1F` the IC50 [1] was 12 nM and the Activity [18] was “inactive”.

In the case of `Nc1noc2cccc(-c3ccc(NC(=O)/C=C/c4cccc(C(F)(F)F)c4)cc3)c12`, the IC50 [1] is reported as > 12500 nM, the IC50 [20] is reported as > 12500 nM and the IC50 [2] is reported as 1400 nM.

For `Nc1noc2cccc(-c3ccc(NC(=O)Nc4cc(C(F)(F)F)ccc4F)cc3)c12`, the IC50 [1] was 339 nM.

With `Cc1ccc(NC(=O)Nc2ccc(-c3cccc4onc(N)c34)cc2)cc1Cl` the IC50 [1] was 50 nM.

With `COc1ccc(-c2ccc(NC(=O)Nc3cccc(Cl)c3)cc2)c2c(N)noc12` the IC50 [3] was 38 nM, the bioavailability [4] was 99% and the IC50 [5] was > 50000 nM. For the same molecule, the IC50 [6] was 1000 nM, the IC50 [1] was 72 nM and the AUC [8] was 25.8 µM·h. It also gave a half-life [21] of 0.9 h, a clearance [22] of 15.5 mL/min/kg and an IC50 [2] of 30 nM. For the same molecule, the Activity [10] was “inactive”, the Vd [23] was 1.2 L/kg and the inhibition in vivo at 30 mg/kg/day [12] was 45%. The IC50 [13] was > 50000 nM, the IC50 [15] was > 50000 nM and the IC50 [16] was 40 nM. It also gave an inhibition in vivo at 3 mg/kg [24] of 90%.

For `Nc1noc2cccc(-c3ccc(NC(=O)Nc4ccccc4F)cc3)c12`, the IC50 [1] was 21 nM.

In the case of `Cc1ccc(F)c(NC(=O)Nc2ccc(-c3ccc(F)c4onc(N)c34)cc2)c1`, the IC50 [1] is reported as 216 nM, the IC50 [20] is reported as 211 nM and the IC50 [2] is reported as 173 nM.

Molecule `Nc1noc2cccc(-c3ccc(NC(=O)Nc4cccc(Cl)c4)cc3)c12` has an IC50 [1] of 10 nM and an IC50 [2] of 6 nM.

In the case of `Nc1noc2cccc(-c3ccc(NC(=O)Nc4ccc(OC(F)(F)F)cc4)cc3)c12`, the IC50 [1] is reported as 102 nM and the IC50 [2] is reported as 27 nM.

Work on `COc1ccc(-c2ccc(NC(=O)Nc3cccc(Br)c3)cc2)c2c(N)noc12` yielded a bioavailability [4] of 71%, an ED50 [7] of 1 mg/kg and an AUC [8] of 13.8 µM·h. For the same molecule, the half-life [9] was 1.9 h, the clearance [11] was 18.3 mL/min/kg and the Vd [17] was 3.1 L/kg.

With `Nc1ccc(-c2cccc3onc(N)c23)cc1` the IC50 [1] was 14800 nM.
